# Measured values taken from US10729668B2, “Ketobutyrate compounds and compositions for treating age-related symptoms and diseases” (The Regents of the University of California, priority 2014, dated 2020).
# Experiments:
# Complex II = target: T1, Complex II (Mus musculus, UniProt Q8K2B3+Q9CQA3+Q9CXV1+Q9CZB0); experiment: Complex II driven coupling assay, isolated liver mitochondria (succinate and rotenone); type: biochemical; details: succinate supplemented
# T1 construct: Mitochondria were isolated from mouse liver as described earlier; from tissue; host or cells: liver mitochondria of 3-month-old C57BL/6 mice
# T1 sequence (Q8K2B3 43-664): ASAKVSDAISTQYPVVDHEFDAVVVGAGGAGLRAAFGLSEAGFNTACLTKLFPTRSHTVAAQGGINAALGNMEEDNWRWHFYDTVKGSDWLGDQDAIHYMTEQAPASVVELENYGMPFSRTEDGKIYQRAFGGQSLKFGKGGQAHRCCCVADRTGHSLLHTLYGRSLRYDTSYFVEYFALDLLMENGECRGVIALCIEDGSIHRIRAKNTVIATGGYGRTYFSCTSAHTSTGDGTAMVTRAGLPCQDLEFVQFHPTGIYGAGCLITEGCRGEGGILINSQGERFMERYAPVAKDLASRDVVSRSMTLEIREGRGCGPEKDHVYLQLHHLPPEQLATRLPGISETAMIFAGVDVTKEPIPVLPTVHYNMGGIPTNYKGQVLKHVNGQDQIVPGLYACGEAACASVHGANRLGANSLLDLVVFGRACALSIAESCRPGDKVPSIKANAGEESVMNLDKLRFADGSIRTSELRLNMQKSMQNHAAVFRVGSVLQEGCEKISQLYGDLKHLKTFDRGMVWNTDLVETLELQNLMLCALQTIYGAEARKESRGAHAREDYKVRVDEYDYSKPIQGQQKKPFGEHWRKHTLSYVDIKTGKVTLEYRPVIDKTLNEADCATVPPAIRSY
# T1 sequence (Q9CQA3 31-282): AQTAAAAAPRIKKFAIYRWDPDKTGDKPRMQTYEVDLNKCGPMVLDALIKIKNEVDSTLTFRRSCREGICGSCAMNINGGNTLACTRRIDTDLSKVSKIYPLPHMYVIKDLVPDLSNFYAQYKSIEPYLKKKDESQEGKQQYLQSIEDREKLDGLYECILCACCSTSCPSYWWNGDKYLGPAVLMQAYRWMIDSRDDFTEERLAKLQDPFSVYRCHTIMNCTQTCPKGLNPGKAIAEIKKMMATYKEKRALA
# T1 sequence (Q9CZB0 30-169): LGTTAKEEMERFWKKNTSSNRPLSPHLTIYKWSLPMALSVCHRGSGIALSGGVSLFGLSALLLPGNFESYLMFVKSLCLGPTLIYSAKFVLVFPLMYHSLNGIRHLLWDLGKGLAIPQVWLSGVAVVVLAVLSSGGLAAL
# T1 sequence (Q9CXV1 57-159): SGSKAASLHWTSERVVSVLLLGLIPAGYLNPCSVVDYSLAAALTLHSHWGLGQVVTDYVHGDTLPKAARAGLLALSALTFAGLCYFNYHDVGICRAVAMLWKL
# Procedure: Animal studies were performed under approved UCLA animal research protocols. Mitochondria from 3-month-old C57BL/6 mice were isolated. Briefly, livers were extracted, minced at 4° C. in MSHE+BSA (70 mM sucrose, 210 mM mannitol, 5 mM HEPES, 1 mM EGTA, and 0.5% fatty acid free BSA, pH 7.2), and rinsed several times to remove blood. All subsequent steps were performed on ice or at 4° C. The tissue was disrupted in 10 volumes of MSHE+BSA with a glass Dounce homogenizer (5-6 strokes) and the homogenate was centrifuged at 800×g for 10 minutes to remove tissue debris and nuclei. The supernatant was decanted through a cell strainer and centrifuged at 8,000×g for 10 minutes. The dark mitochondrial pellet was resuspended in MSHE+BSA and re-centrifuged at 8,000×g for 10 minutes. The final mitochondrial pellet was resuspended in 30 μl of MAS buffer (70 mM sucrose, 220 mM mannitol, 10 mM KH2PO4, 5 mM MgCl2, 2 mM HEPES, 1 mM EGTA, and 0.2% fatty acid free BSA, pH 7.2). Isolated mitochondrial respiration was measured by running coupling and electron flow assays as described. […]
# Mitochondrial respiration was measured by running coupling and electron flow assays. […]
# C2C12 Cells = experiment: Oxygen consumption rate (OCR) in C2C12 cells, Seahorse XF-24; type: cell-based, mouse; details: 1 hour treatment
# Procedure: Measurement of oxygen consumption rates (OCR). OCR measurements were made using a Seahorse XF-24 analyzer (Seahorse Bioscience). C2C12 Cells were seeded in Seahorse XF-24 cell culture microplates at 30,000 cells per well in DMEM media supplemented with 10% FBS and 10 mM glucose, and incubated at 37° C. and 5% CO2 overnight. Treatment with α-KB or DMSO (vehicle control) was for 1 hour. Cells were washed in unbuffered DMEM medium (pH 7.4, 10 mM glucose) just before measurements, and maintained in this buffer with indicated concentrations of α-KB. OCR was measured three times under basal conditions and normalized to protein concentration per well.
# NADH dehydrogenase = experiment: Electron flow assay, isolated liver mitochondria; type: biochemical, mouse
# Procedure: Animal studies were performed under approved UCLA animal research protocols. Mitochondria from 3-month-old C57BL/6 mice were isolated. Briefly, livers were extracted, minced at 4° C. in MSHE+BSA (70 mM sucrose, 210 mM mannitol, 5 mM HEPES, 1 mM EGTA, and 0.5% fatty acid free BSA, pH 7.2), and rinsed several times to remove blood. All subsequent steps were performed on ice or at 4° C. The tissue was disrupted in 10 volumes of MSHE+BSA with a glass Dounce homogenizer (5-6 strokes) and the homogenate was centrifuged at 800×g for 10 minutes to remove tissue debris and nuclei. The supernatant was decanted through a cell strainer and centrifuged at 8,000×g for 10 minutes. […] Isolated mitochondrial respiration was measured by running coupling and electron flow assays as described. […] After basal readings, the sequential injections were as follows: 2 μM rotenone (Complex I inhibitor), 10 mM succinate (Complex II substrate), 4 μM antimycin A (Complex III inhibitor), and 10 mM/100 μM ascorbate/tetramethylphenylenediamine (Complex IV substrate). […]
smiles,measurement,setting,value
"C[C@@H](O)CC(=O)O [3-HB, (R)-3-hydroxybutyrate, reference compound]","mitochondrial respiration, Complex II-driven coupling",Complex II,does not affect
same,basal respiration,C2C12 Cells,does not have any effect
same,maximal respiration (mitochondrial respiration upon FCCP treatment),C2C12 Cells,does not have any effect
same,respiration in electron flow assay,NADH dehydrogenase,does not affect
